Here are results for nine compounds from patent publication US11771672B2, “Use of 2-hydroxyoleic acid for the treatment of systemic lupus erythematosus and other immune pathologies” (THE RESEARCH FOUNDATION FOR THE STATE UNIVERSITY OF NEW YORK, priority 2017, dated 2023).

Where two headings read alike, the source gives them in different places.

One assay deals with SMS. As to conditions: cited from earlier work.
A further assay has as its system PKCδ. The experiment in a line: Western blot analysis of nuclear PKCδ (PKCδ nuclear translocation) in splenic B cells. In kind it is cell-based, mouse. An excerpt: Generally speaking, PKCs are known to receive DAG on the plasma membrane for their full activation and subsequent subcellular translocation. However, in B cells, the plasma membrane DAG provider that activates PKCδ nuclear translocation is still unknown. Whether SMS2 was the DAG provider for PKCδ activation in mature B cells was therefore tested. In contrast to Sgms2^+/+ naive B cells, nuclear PKCδ was barely detectable in the Sgms2^−/− naive B cells following 24 hr culture. […] This DAG analog-dependent effect supported the involvement of SMS2-derived DAG in activation of PKCδ nuclear translocation.
To further clarify the mechanism that regulates PKCδ activation by SMS2-generated DAG, whether enhancing SMS2 activity could correspondingly increase PKCδ nuclear translocation in cultured Sgms2^+/+ B cells was tested.
293T cells were transfected with plasmid vectors to overexpress FLAG-tagged different SMS2 portions as indicated. Protein lysates from transfected 293T cells were immunoprecipitated with anti-FLAG antibody and then immunoblotted with anti-PKCδ antibody. Sample loading was controlled by inputs of cell lysates. […] Thus, SMS2 is a critical and direct PKCδ activator in mature B cells.
For orientation: In western blotting, separated proteins are transferred to a membrane and probed.

In a further assay the test system is splenic B cells. Briefly: Lysenin toxicity assay of surface SM levels in splenic B cells. Particulars: Sgms2-/- B cells, SM supplementation. In kind it is cell-based, mouse.
For another assay, the target named is T1, SMS2 (Mus musculus, UniProt Q9D4B1).
T1 construct: endogenous in cells; host or cells: purified primary splenic B cells from Sgms2+/+ mice (C57BL/6 background); Sgms2-/- B cells as knockout control
T1 sequence (Q9D4B1 1-365): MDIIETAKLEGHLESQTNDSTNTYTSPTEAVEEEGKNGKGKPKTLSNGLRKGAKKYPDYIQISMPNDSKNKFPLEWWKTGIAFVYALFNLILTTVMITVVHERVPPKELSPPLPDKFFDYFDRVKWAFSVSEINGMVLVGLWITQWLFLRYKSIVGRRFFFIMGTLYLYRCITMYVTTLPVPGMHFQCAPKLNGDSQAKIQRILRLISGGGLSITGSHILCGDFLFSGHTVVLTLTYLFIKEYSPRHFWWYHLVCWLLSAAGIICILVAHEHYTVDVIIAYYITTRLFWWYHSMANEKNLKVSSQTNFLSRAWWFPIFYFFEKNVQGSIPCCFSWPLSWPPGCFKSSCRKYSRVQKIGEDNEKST
The experiment in a line: Elisa analysis of plasma membrane DAG levels in B cells. In kind it is cell-based. As to conditions: purified Sgms2+/+ B cells.

In a further assay the test system is NZBWF1 mice. Briefly: Serum total IgG and anti-dsDNA IgG titers by ELISA in NZBWF1 mice (spontaneous SLE mouse model). Type of assay: in vivo. Particulars: female NZBWF1 mice, four weeks. An excerpt:
Given that PKCδ nuclear translocation was promoted by enhancing SMS2 activity with 2OHOA, whether this drug could be adopted to strengthen B cell tolerance in NZBWF1 mice that spontaneously develop SLE due to impaired tolerance caused by multiple genetic variants other than Sgms2 or Prkcd was examined. Remarkably, the expected increase in titers of anti-dsDNA IgGs in the sera of NZBWF1 mice over the same time frame as sham treated mice was impeded by 2OHOA treatment. […] This treatment started when the mouse serum anti-dsDNA IgG level reached the levels between 1,000 ng/ml and 30,000 ng/ml. The titers of serum total IgG and anti-dsDNA IgG were measured by ELISA. Shown in the graph are ratios of the IgG titers after treatment to the titers before treatment. Mann-Whitney test (2 tailed) was used to calculate p values, SEMs, and other parameters as shown in the graph and table. Data represents the results of 15 2OHOA-treated and 10 empty vehicle-treated mice.
A general note: An ELISA detects its analyte on a solid surface through an enzyme-linked reagent.

Setting [1] is: as disclosed in U.S. Pat. No. 9,359,281.

Regarding `CC/C=C\C/C=C\C/C=C\CCCCCCC(O)C(=O)O` (stereo not drawn) [2-hydroxy-alpha-linoleic acid], the “stimulation of SMS activity” value in the assay with SMS (setting [1]) was “stimulate SMS activity”. For the compound `C/C=C(/C)C(=O)O[C@H]1C(C)=C[C@]23C(=O)[C@@H](C=C(CO)[C@@H](O)[C@]12O)[C@H]1[C@@H](C[C@H]3C)C1(C)C` [I3A, ingenol-3-angelate], the “nuclear PKCδ” value in the assay with PKCδ (Sgms2+/+ B cells cultured for 30 minutes) and in the assay on PKCδ (Sgms2-/- B cells cultured for 30 minutes) was “increased nuclear PKCδ” each time. Take `CCCCCCCCCCCCCC(=O)O[C@@H]1[C@@H](C)[C@@]2(O)[C@@H](C=C(CO)C[C@]3(O)C(=O)C(C)=C[C@@H]23)[C@@H]2C(C)(C)[C@]12OC(C)=O` [PMA]: the PKCδ nuclear translocation entry in the assay on PKCδ (Sgms2+/+ B cells, PMA) is on record as “promotion of PKCδ nuclear translocation”; with PKCδ (Sgms2-/- B cells, PMA), “but not in Sgms2^−/− B cells”.

With sphingomyelin [SM], in the assay with PKCδ (Sgms2-/- B cells, SM supplementation 24 hr), the “nuclear PKCδ level” value was “could not restore”. Also, in the assay on splenic B cells, the “surface SM level” value is recorded as “Restoration of surface SM level”. `CCCCC/C=C\C/C=C\C/C=C\CCCC(O)C(=O)O` (stereo not shown) [2-hydroxy-gamma-linoleic acid]: in the assay on SMS (setting [1]), the “stimulation of SMS activity” value is “stimulate SMS activity”. Consider `CCCCC/C=C\C/C=C\CCCCCCC(O)C(=O)O` (stereo not shown) [2-hydroxylinoleic acid], for which, in the assay with SMS (setting [1]), the “stimulation of SMS activity” value is reported as “stimulate SMS activity”. Consider `CCCCCCCC/C=C\CCCCCCC(O)C(=O)O` (stereo not shown) [2OHOA, 2-hydroxyoleic acid], for which the “SMS2-derived DAG level (plasma membrane DAG)” value on SMS2 is “increased”. For the same compound, the PKCδ nuclear translocation result with PKCδ (Sgms2-/- B cells, 2OHOA-treated) is “but not in Sgms2^−/− B cells”; in the assay on PKCδ (purified Sgms2+/+ B cells, 2OHOA-treated) it was “increased”. Also, in the assay on NZBWF1 mice (oral gavage 400 mg/kg per day, vs sham treated mice), the “increase in titers of anti-dsDNA IgGs in the sera” value was “impeded”. Moreover, the “total serum IgG titers” value in the assay with NZBWF1 mice (oral gavage 400 mg/kg/day) was “without reducing the total serum IgG titers”. `CCCCCCCC/C=C\CCCCCC[C@H](O)C(=O)O` [(S)-2OHOA, (S)-2-hydroxyoleic acid]: in the assay on SMS (compared with (R)-2-hydroxyoleic acid or a mixture of the two stereoisomers), the “stimulation of SMS activity” value is listed as “more strongly stimulates SMS activity”.

On to `CCCCCC/C=C\CCCCCCC(O)C(=O)O` (stereo not shown) [2-hydroxypalmitoleic acid], for which the “stimulation of SMS activity” value with SMS (setting [1]) is listed as “stimulate SMS activity”.
